Tests used:
[1] = system: PAI-1 expression in Mv1Lu cells; test: TGF-β1-stimulated expression of PAI-1 mRNA (Northern blot / real-time RT-PCR) in Mv1Lu cells; type: cell-based
Protocol: (A-G) Cells were pretreated with vehicle only or with several concentrations (as indicated) of β-CD (A,C), thioridazine (B), TFP (D), chloroquine (E), monensin (F) and MDC (G) at 37° C. for 1 h. Treated cells were then stimulated with 50 pM TGF-β1. After 2 h at 37° C., the mRNAs of PAI-1 and G3PDH (as control) in the cell lysates were analyzed by Northern blot (top) and quantified using a PhosphoImager (bottom) (A,B) or real-time RT-PCR (C to G). The TGF-β-stimulated expression of PAI-1 in cells treated with vehicle only was taken as 100% (A, B) or 1 fold (C to G) of control. […] (H) Cells were pretreated with several concentrations (as indicated) of dynasore at 37° C. for 1 h and then stimulated with 50 pM TGF-β1. After 2 h at 37° C., the mRNA of PAI-1 was quantitated by real-time RT-PCR. The relative level of PAI-1 mRNA in cells treated with TGF-β1 alone was taken as 1 (100%). Experiments were carried out in triplicate. The data shown is representative of 3 independent experiments.
The PAI-1 gene is one of the most studied genes responsive to TGF-β stimulation^4,5. The promotor region of the PAI-gene contains several Smad2/3 binding sites that have been used as the TGF-β responsive elements to enhance the expression of a reported gene^4,5. […] Cells were pretreated with vehicle only and several concentrations of β-CD, thioridazine, TFP, MDC, monensin and chloroquine at 37° C. for 1 h. Cells were then stimulated with 50 pM TGF-β1. After 2 h at 37° C., the relative levels of PAI-1 mRNA were analyzed by quantitative Northern blot analysis (FIGS. 3A and 3B) and real-time RT-PCR (FIG. 3C-3G).

[2] = system: hypercholesterolemic ApoE-null mice; test: Atherosclerosis in hypercholesterolemic ApoE-null mice (coronary artery histology, TβR-II staining, plasma cholesterol); type: in vivo
Protocol: (§1) Wild-type and ApoE-null mice were treated with vehicle only (a, c) or 1 mg/kg dynasore (b, d) every two days for 8 weeks. The coronary arteries were removed from the animals and subjected to histological analysis by H & E staining (A) and indirect immunofluorescent staining for TβR-II(B). The asterisk (*) indicates the location of the lumen in coronary arteries. The arrow indicates the immunofluorescent staining of TβR-II in the aortic endothelium.
(§2) We hypothesize that TGF-β enhancers such as inhibitors of clathrin-dependent endocytosis may ameliorate atherosclerosis caused by cholesterol-induced suppression of TGF-β responsiveness in vascular cells^3,12. To test our hypothesis, we treated hypercholesterolemic ApoE-null mice with dynasore (1 mg/kg body weight) via intraperitoneal administration every two days for 8 weeks. We chose dynasore for two reasons. […] At 50 μM, it enhances TGF-β-stimulated expression of PAI-1 in these cell types by ˜4-5 fold, 2) Dynasore is the only inhibitor tested which alone is capable of stimulating PAI-1 expression. […] The plasma levels of cholesterol in wild-type mice treated with either vehicle only or dynasore were 120±10 and 125±20 mg/dl, respectively.
(§3) However, no TβR-II staining was found in the aortic endothelium and smooth muscle of coronary arteries in ApoE-null mice treated with vehicle only (FIG. 4Bc).

[3] = system: PAI-1 expression in bovine aortic endothelial cells (BAEC cells); test: TGF-β-stimulated expression of PAI-1 in BAEC cells; type: cell-based; settings: dynasore 50 μM; BAEC cells (unpublished results)
Protocol: as §2

[4] = system: TβR-I and SARA at the plasma membrane in Mv1Lu cells; test: Co-localization and accumulation of TβR-I and SARA, immunofluorescent microscopy; type: cell-based; settings: 20 μM TFP, 10 mg/ml β-CD, 40 μM dynasore, 200 μM chloroquine, with 100 pM TGF-β1, 30 min
Protocol: Cells were pretreated with vehicle only or 20 μM TFP, 10 mg/ml β-CD, 40 μM dynasore (Dyn) and 200 μM chloroquine (CQ) at 37° C. for 1 h. Treated cells were then stimulated with and without 100 pM TGF-β1. After 30 min at 37° C., cells were fixed and analyzed by indirect immunofluorescent staining using antibody to TβR-I (panels 1-10) and SARA (panels 11-20), DAPI (nuclear) staining was also performed (panels 21-30). Merged staining is also shown (panels 31-40). Insets indicate the co-localization and accumulation of SARA and TβR-I at the plasma membrane.
TGF-β stimulates Smad2 phosphorylation by inducing association of TβR-I and SARA^6,7 (which serves as an anchor for Smad2), binding of Smad2 to SARA, and subsequent phosphorylation of Smad2 by TβR-I in the TβR-1-SARA-Smad2 complex. If clathrin-dependent endocytosis inhibitors enhance TGF-β-induced signaling (TGF-β-stimulated Smad2 phosphorylation) by increasing accumulation of TβR-I/TβR-II complexes at the coated pits, they should promote co-localization and accumulation of TβR-I and SARA at the plasma membrane. To test this, Mv1Lu cells were stimulated with 100 pM TGF-β1. After 30 min at 37° C., […] analyzed by immunofluorescent microscopy using antibodies to TβR-I and SARA. […] This is consistent with the previous report that TGF-β enhances TGF-β receptor internalization^16.

wild-type mice = test: Wild-type mice treated with dynasore (organ pathology, coronary artery histology, TβR-II staining, plasma cholesterol); type: in vivo
Protocol: as §1, §2, §3

[5] = system: PAI-1 expression in Chinese hamster ovary cells (CHO cells); test: TGF-β-stimulated expression of PAI-1 in CHO cells; type: cell-based; settings: dynasore 50 μM; CHO cells (unpublished results)
Protocol: as §2

[6] = dynasore 1 mg/kg every two days for 8 weeks, indirect immunofluorescent staining

**Q.** Which “stimulation of PAI-1 expression by dynasore alone” value ([1]; dynasore 25 μM without TGF-β1, real-time RT-PCR) does the source give for `O=C(N/N=C/c1ccc(O)c(O)c1)c1cc2ccccc2cc1O` [dynasore] here?
**A.** to the same extent as with 50 pM TGF-β1 alone

**Q.** And the “enhancement of TGF-β-stimulated expression of PAI-1” value (from here on “enhancement … of PAI-1”) ([1]; dynasore 50 μM)?
**A.** 4-5 fold

**Q.** And the “enhancement of TGF-β1-stimulated PAI-1 expression” value ([1]; dynasore 50 μM, 50 pM TGF-β1 for 2 h, real-time RT-PCR)?
**A.** ~5 fold

**Q.** What about the “TβR-II staining in the aortic endothelium of coronary arteries” value [2, 6] of the same compound?
**A.** appeared to restore the TβR-II staining

**Q.** And the “TβR-II staining in the smooth muscle near the endothelium” value [2, 6]?
**A.** slight staining of TβR-II was found

**Q.** And the effect on atherosclerosis ([2]; dynasore 1 mg/kg intraperitoneal every two days for 8 weeks)?
**A.** effectively ameliorates atherosclerosis

**Q.** And the “macrophages or foam cells in the endothelium of the coronary arteries” value ([2]; dynasore 1 mg/kg intraperitoneal every two days for 8 weeks, H & E staining)?
**A.** very few macrophages or foam cells were found

**Q.** What about the “enhancement … of PAI-1” value [3] of the same compound?
**A.** 4-5 fold

**Q.** What about the “co-localization and accumulation of TβR-I and SARA at the plasma membrane, co-treatment with TGF-β1” value [4] of the same compound?
**A.** promoted co-localization and accumulation of TβR-I and SARA at the plasma membrane

**Q.** What about the “morphology of the coronary arteries” value (wild-type mice; dynasore 1 mg/kg every two days for 8 weeks, H & E staining) of the same compound?
**A.** normal morphology

**Q.** What about the “macroscopic or microscopic abnormality in the liver, heart, lung and kidney” value (wild-type mice; dynasore 1 mg/kg intraperitoneal every 2 days for 8 weeks) of the same compound?
**A.** no apparent macroscopic or microscopic abnormality has been detected

**Q.** What about the “enhancement … of PAI-1” value [5] of the same compound?
**A.** 4-5 fold

Reference: patent US8487006B2, “Method of enhancing TGF-β signalling” (Auxagen, Inc., priority 2008, dated 2013)
